Laboratory results: publication PMC9781827, “Isolation and Identification of Anti-Inflammatory Peptide from Goose Blood Hydrolysate to Ameliorate LPS-Mediated Inflammation and Oxidative Stress in RAW264.7 Macrophages” (Molecules, 2022)

What was measured:
[1] = tested on: TLR4, CD14, MD-2, MyD88, p-NF-kB/NF-kB, IKKβ; assay: Western blot of TLR4, CD14, MD-2, MyD88, p-NF-kB/NF-kB, IKKβ in RAW264.7 macrophages; type: cell-based; settings: LPS group vs CTRL group, p < 0.05
Protocol: RAW264.7 macrophages were washed with cold PBS and homogenized with two small magnetic beads (2 mm) and 10× volume of RIPA buffer containing 1% protease inhibitors for 60 s. Then the supernatant was collected after centrifuging at 12,000× g for 10 min at 4 °C, which was the total protein solution. The concentration of protein in the total protein solution was measured by BCA kits. The protein concentration of the supernatant was diluted to 2.0 mg/mL and mixed with an equal volume of buffer (0.25 mol/L Tris-HCl buffer, pH 6.8, containing 4% SDS and 20% glycerol with 20 mmol/L 2-mercaptoethanol). The stacking gel and separating gel were made of 5% (w/v) and 10% (w/v) polyacrylamide, respectively. Electrophoresis was carried out at 80 V until the dye front reached the bottom of the stacking gel, and the gel was run at 120 V until the dye front reached the bottom of the separating gel (165-8001, Bio-Rad Mini-PROTEAN Tetra Electrophoresis System). The PVDF membrane was covered on the gel and transferred membrane at 300 mA for 30 min. The membrane was moved into a decolorization shaker with 5% skim milk (0.5% TBST) and blocked for 1 h at room temperature. […] The film was scanned and archived, processed and decolorized by Photoshop, and the optical density value of the target band was analysed by ImageJ software processing system.

IL-6 = IL-6 level by ELISA in culture medium, model of LPS-mediated RAW264.7 macrophage inflammation; type: cell-based; settings: LPS group: LPS (1.0 μg/mL) alone, 24 h; mean ± S.D., n = 3
Protocol: The anti-inflammatory activity of the peptides was determined according to the methods of a previous study. The anti-inflammatory activity of different fractions was evaluated by measuring the levels of the inflammatory cytokines (TNF-α, IL-1β and IL-6) in a model of LPS-induced macrophage inflammation with ELISA kits (Jiangsu Enzyme marker Biotechnology Co., Ltd., Yancheng, China). […] A 20 mmol/L Tris-HCl (pH 8.0) solution was used as the start buffer and 20 mmol/L Tris-HCl/1 mol/L NaCl (pH 8.0) was used as elution buffer. Elution program: (1) wash with 5 column volumes of starting buffer; (2) elute with 10 column volumes of 50% elution buffer and 50% start buffer; (3) elute with 5 column volumes of 100% elution buffer. The above flow rates were 5 mL/min. The fractions were detected at 280 nm by an ultraviolet detector and collected by an automatic fraction collector.
The method of RAW264.7 macrophage culture and treatments were based on the study of Li et al.. […] Macrophages from passages 5 to 10 were selected to seed on 96-well culture plates at a density of 4 × 10^5 cells/well and cultured with different concentrations of LPS (0.5 μg/mL, 1.0 μg/mL and 2.0 μg/mL) for 24 h. The optimal concentration of LPS for inducing inflammation in the RAW264.7 macrophage was ensured according to cell viability. […] The ability of GBP to protect RAW264.7 macrophages was evaluated. […]

lipopolysaccharide [LPS]
protein expression levels of TLR4, CD14, MD2, MyD88, p-NF-kB, NF-kB and IKKβ [1]: elevated | level of IL-6 (IL-6): 373.01 ± 12.49 pg/mL
